# Assays:
# Type in all cases: in vivo
# [1] = system: barnyardgrass (Echinochloa crus-galli); assay: Test A postemergence, barnyardgrass; conditions: visual injury, 0 to 100 scale (0 no effect, 100 complete control), approximately 10 days
# In short: (§1)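 Ratings use a 0–100 scale, where 0 means no effect and 100 means complete control, and come from visual comparison with untreated plants roughly 10 days after treatment. Compounds were applied in a surfactant-containing, non-phytotoxic solvent, either to soil after seeding or to foliage of small seedlings.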
# [2] = system: ragweed (common ragweed, Ambrosia elatior); assay: Test A preemergence, ragweed; conditions: 0 to 100 scale (0 no effect, 100 complete control)
# In short: as §1
# [3] = system: pigweed (Amaranthus retroflexus); assay: Test A postemergence, pigweed; conditions: visual injury, 0 to 100 scale (0 no effect, 100 complete control), approximately 10 days
# In short: as §1
# [4] = system: barnyardgrass (Echinochloa crus-galli); assay: Test B flooded paddy test, barnyardgrass; conditions: applied to paddy water, visual rating after 13 to 15 days, scale 0 (no effect) to 100 (complete control)
# In short: (§2)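 In-water treatment: compound dosed into 3 cm flood over soil, water level unchanged throughout. Controls run alongside; visual assessment at day 13–15.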
# [5] = system: sedge, umbrella (small-flower umbrella sedge, Cyperus difformis); assay: Test B flooded paddy test, umbrella sedge; conditions: applied to paddy water, visual rating after 13 to 15 days, scale 0 (no effect) to 100 (complete control)
# In short: as §2
# [6] = system: barnyardgrass (Echinochloa crus-galli); assay: Test A preemergence, barnyardgrass; conditions: 0 to 100 scale (0 no effect, 100 complete control)
# In short: as §1
# [7] = system: foxtail, giant (Setaria faberii); assay: Test A preemergence, giant foxtail; conditions: 0 to 100 scale (0 no effect, 100 complete control)
# In short: as §1
# [8] = system: wheat (Triticum aestivum); assay: Test A postemergence, wheat; conditions: visual injury, 0 to 100 scale (0 no effect, 100 complete control), approximately 10 days
# In short: as §1
# corn (Zea mays) = assay: Test A postemergence, corn; conditions: visual injury, 0 to 100 scale (0 no effect, 100 complete control), approximately 10 days
# In short: as §1
# rice (Oryza sativa) = assay: Test B flooded paddy test, rice; conditions: applied to paddy water, visual rating after 13 to 15 days, scale 0 (no effect) to 100 (complete control)
# In short: as §2
# kochia (Kochia scoparia) [9] = assay: Test A preemergence, kochia; conditions: 0 to 100 scale (0 no effect, 100 complete control)
# In short: as §1
# [10] = system: ducksalad (Heteranthera limosa); assay: Test B flooded paddy test, ducksalad; conditions: applied to paddy water, visual rating after 13 to 15 days, scale 0 (no effect) to 100 (complete control)
# In short: as §2
# kochia (Kochia scoparia) [11] = assay: Test A postemergence, kochia; conditions: visual injury, 0 to 100 scale (0 no effect, 100 complete control), approximately 10 days
# In short: as §1
# [12] = system: blackgrass (Alopecurus myosuroides); assay: Test A postemergence, blackgrass; conditions: visual injury, 0 to 100 scale (0 no effect, 100 complete control), approximately 10 days
# In short: as §1
# [13] = system: pigweed (Amaranthus retroflexus); assay: Test A preemergence, pigweed; conditions: 0 to 100 scale (0 no effect, 100 complete control)
# In short: as §1
# [14] = system: galium (catchweed bedstraw, Galium aparine); assay: Test A postemergence, galium; conditions: visual injury, 0 to 100 scale (0 no effect, 100 complete control), approximately 10 days
# In short: as §1
# [15] = system: ryegrass, Italian (Lolium multiflorum); assay: Test A preemergence, Italian ryegrass; conditions: 0 to 100 scale (0 no effect, 100 complete control)
# In short: as §1
# [16] = system: ryegrass, Italian (Lolium multiflorum); assay: Test A postemergence, Italian ryegrass; conditions: visual injury, 0 to 100 scale (0 no effect, 100 complete control), approximately 10 days
# In short: as §1
# [17] = system: foxtail, giant (Setaria faberii); assay: Test A postemergence, giant foxtail; conditions: visual injury, 0 to 100 scale (0 no effect, 100 complete control), approximately 10 days
# In short: as §1
# [18] = system: ragweed (common ragweed, Ambrosia elatior); assay: Test A postemergence, ragweed; conditions: visual injury, 0 to 100 scale (0 no effect, 100 complete control), approximately 10 days
# In short: as §1
SMILES,"Plant response rating, Barnyardgrass ([1]; 125 g ai/ha)","Plant response rating, Barnyardgrass ([1]; 500 g ai/ha)","Plant response rating, Ragweed ([2]; 125 g ai/ha)","Plant response rating, Ragweed ([2]; 500 g ai/ha)","Plant response rating, Pigweed ([3]; 125 g ai/ha)","Plant response rating, Pigweed ([3]; 500 g ai/ha)","Plant response rating, Barnyardgrass ([6]; 125 g ai/ha)","Plant response rating, Barnyardgrass ([6]; 500 g ai/ha)","Plant response rating, Foxtail, Giant ([7]; 125 g ai/ha)","Plant response rating, Foxtail, Giant ([7]; 500 g ai/ha)","Plant response rating, Wheat ([8]; 125 g ai/ha)","Plant response rating, Wheat ([8]; 500 g ai/ha)","Plant response rating, Corn (corn (Zea mays); 125 g ai/ha)","Plant response rating, Corn (corn (Zea mays); 500 g ai/ha)","Plant response rating, Kochia (kochia (Kochia scoparia) [9]; 125 g ai/ha)","Plant response rating, Kochia (kochia (Kochia scoparia) [9]; 500 g ai/ha)","Plant response rating, Kochia (kochia (Kochia scoparia) [11]; 125 g ai/ha)","Plant response rating, Kochia (kochia (Kochia scoparia) [11]; 500 g ai/ha)","Plant response rating, Blackgrass ([12]; 125 g ai/ha)","Plant response rating, Blackgrass ([12]; 500 g ai/ha)",also measured
O=C1NCC(c2cccc(OCc3ccccc3)c2)C1C(=O)Nc1ccccc1F (stereo not drawn) [Compound 63],0,0,0,0,0,0,0,0,0,0,0,0,0,0,0,0,0,0,0,0,"Plant response rating, Barnyardgrass (Flood) ([4]; 500 g ai/ha): 0; Plant response rating, Sedge, Umbrella (Flood) ([5]; 500 g ai/ha): 0; Plant response rating, Rice (Flood) (rice (Oryza sativa); 500 g ai/ha): 0; Plant response rating, Ducksalad (Flood) ([10]; 500 g ai/ha): 35; Plant response rating, Pigweed ([13]; 125 g ai/ha): 0; Plant response rating, Pigweed ([13]; 500 g ai/ha): 0; Plant response rating, Galium ([14]; 125 g ai/ha): 0; Plant response rating, Galium ([14]; 500 g ai/ha): 0; Plant response rating, Ryegrass, Italian ([15]; 125 g ai/ha): 0; Plant response rating, Ryegrass, Italian ([15]; 500 g ai/ha): 0; Plant response rating, Ryegrass, Italian ([16]; 125 g ai/ha): 0; Plant response rating, Ryegrass, Italian ([16]; 500 g ai/ha): 0; Plant response rating, Foxtail, Giant ([17]; 125 g ai/ha): 0; Plant response rating, Foxtail, Giant ([17]; 500 g ai/ha): 0; Plant response rating, Ragweed ([18]; 125 g ai/ha): 0; Plant response rating, Ragweed ([18]; 500 g ai/ha): 0"
"O=C1NCC(c2cccc(Oc3ncc(F)cn3)c2)C1C(=O)Nc1ccccc1F (single isomer, unassigned) [Compound 39]",70,100,0,50,0,20,70,90,90,100,0,60,30,70,30,50,0,0,0,40,"Plant response rating, Barnyardgrass (Flood) ([4]; 250 g ai/ha): 0; Plant response rating, Sedge, Umbrella (Flood) ([5]; 250 g ai/ha): 0; Plant response rating, Rice (Flood) (rice (Oryza sativa); 250 g ai/ha): 0; Plant response rating, Ducksalad (Flood) ([10]; 250 g ai/ha): 75; Plant response rating, Pigweed ([13]; 125 g ai/ha): 0; Plant response rating, Pigweed ([13]; 500 g ai/ha): 0; Plant response rating, Galium ([14]; 125 g ai/ha): 0; Plant response rating, Galium ([14]; 500 g ai/ha): 30; Plant response rating, Ryegrass, Italian ([15]; 125 g ai/ha): 0; Plant response rating, Ryegrass, Italian ([15]; 500 g ai/ha): 60; Plant response rating, Ryegrass, Italian ([16]; 125 g ai/ha): 0; Plant response rating, Ryegrass, Italian ([16]; 500 g ai/ha): 20; Plant response rating, Foxtail, Giant ([17]; 125 g ai/ha): 70; Plant response rating, Foxtail, Giant ([17]; 500 g ai/ha): 80; Plant response rating, Ragweed ([18]; 125 g ai/ha): 0; Plant response rating, Ragweed ([18]; 500 g ai/ha): 30"

# From patent US10405547B2, “Substituted cyclic amides as herbicides” (FMC Corporation, priority 2015, dated 2019)
